Converted amounts (≈) assume the structure as drawn. Like-named read-outs stand apart in the source and are kept apart here.
How the values were obtained:
[1] = test system: Hs27 (human foreskin fibroblast); test: Cytotoxicity assay (MTT); format: cell-based; settings: 24 h treatment
[2] = test system: T. gondii RH-GFP; test: microbe, parasite or virus in culture; format: cell-based, Toxoplasma gondii
Procedure: Cell and parasite culture: The Hs27 (human foreskin fibroblast) (ATCC® CRL-1634™) (ATCC, Manassas, VA, USA) were culturing in DMEM (Dulbecco’s modified Eagle’s medium-ATCC® 30-2002™, ATCC) supplemented with 10% fetal bovine serum (fetal bovine serum, ATCC® 30-2020™, ATCC), 100 I.U./mL penicillin and 100 μg/mL streptomycin (penicillin-streptomycin solution ATCC® 30-2300™, ATCC). Cells were trypsinized (Trypsin-EDTA Solution ATCC® 30-2101™, ATCC) twice a week and seeded at a density of 1 × 10^6 per T25 cell culture flask and incubated in a 37 °C and 5% CO2 to achieve a confluent monolayer. The RH strain of Toxoplasma gondii (RH-GFP ATCC® 50940™, ATCC, highly virulent, haplogroup first, expression of green fluorescent protein) was maintained as tachyzoites, in parasite culture medium, which contains DMEM medium with 3% HIFBS (heat-inactivated FBS; 1 h in 56 °C). Infected tissue culture cells were incubated in a 37 °C and 5% CO2.
After 72 h of incubation, the medium was removed and then 1 × 10^5 per well of tachyzoites of the RH strain were added to the cell monolayers, in DMEM without phenol red with 3% HIFBS. One hour later, the compounds and drugs dilutions in the DMEM without phenol red medium were added to the Hs27 cells with T. gondii. Concentration of the compounds below cytotoxic concentration (<CC30), sulfadiazine 0–10,000 μM and trimethoprim, pyrimethamine and atovaquone 0–200 μM. After a subsequent 96 h of incubation, the plates were read with covered lids, and both excitation (475 nm) and emission (509 nm) from the bottom using multimode microplate reader SpectraMax® i3. The results were expressed as mean fluorescent intensity (MFI) and transformed to the percentage of viability compared to untreated cells. Finally, the inhibitory concentrations for 50% inhibition of T. gondii proliferation (IC50) were calculated. All experiments were performed in triplicate.
Graphs and statistical analyses: Statistical analyses and graphs were performed using GraphPad Prism version 9.0.0 for macOS (GraphPad Software, San Diego, CA, USA). […] Additionally, a relationship between cytotoxicity and antiparasitic activity were calculated as the ratio of the 30% cytotoxic concentration (CC30) to the 50% antiparasitic concentration (IC50) and presented as the selectivity index (SI).

[3] = test system: tachyzoites of the RH-GFP strain; test: Influence of compounds during Toxoplasma growth, Assay A (invasion); format: cell-based, Toxoplasma gondii
Procedure: (§1) Influence of Compounds during Toxoplasma Growth (Assay A and B): Hs27 cells were cultured on Lab-Tek™ 4-well Chamber Slides (Nunc, Thermo Fisher Scientific, Waltham, MA, USA) (5 × 10^4 cells/500 μL per well).
Assay A—after 48 h, the medium was removed and then 5 × 10^5/500 µL/well tachyzoites of the RH-GFP strain were added to the cell monolayers, in parasite culture medium with the selected compounds at IC50 concentration: 2b, 5b, 8b, 11b or 12b, for 3 h. Then, the cells were washed to remove extracellular parasites and parasite culture medium (without any compounds) was added for 24 h.
(§2) In both assays as the controls, Hs27 cells were infected, but not treated. After subsequent 24 h of incubation (Assay A and B), the slides were washed with sterile PBS, fixed with formaldehyde solution (252549, Sigma-Aldrich), 3.7% in PBS for 20 min and stained with DAPI for 10 min (1 mg/mL, ThermoFisher Scientific). Microscopic analysis of 100 cells in turn, comprised of counting the infected cell ratio and tachyzoites per each parasitophorous vacuoles of infected cell, was performed using a fluorescent microscope (Axio Scope.A1, Carl Zeiss, Jena, Germany) at a magnification ×1000. For image processing ZEISS ZEN Microscope Software version 3.1 was used. Three independent experiments on triplicate chamber slides using the same conditions for both assays were performed.

[4] = test system: tachyzoites of the RH-GFP strain; test: Influence of compounds during Toxoplasma growth, Assay B (intracellular proliferation); format: cell-based, Toxoplasma gondii; settings: 3 h infection without compound, washed, 24 h with compound at IC50
Procedure: as §1
Assay B—after 48 h, the medium was removed and then 5 × 10^5/500 µL/well tachyzoites of the RH-GFP strain were added to the cell monolayers, in parasite culture medium for 3 h.
as §2

[5] = test system: T. gondii RH-GFP; test: Kinetics of T. gondii growth, Assay 1 (intracellular tachyzoites); format: cell-based, Toxoplasma gondii; settings: for effect on the kinetics of T. gondii growth: Assay 1 and Assay 2, Figure 12
Procedure: (§3) Kinetics of T. gondii growth: The effect of 12b and drugs on kinetics of T. gondii RH-GFP growth was performed as follows: 1 × 10^4 per well of Hs27 cells were seeded on black, 96-well, tissue culture-treated plates with optical bottoms in DMEM cell culture medium.
Assay 1—After 72 h of incubation, the medium was removed and then 1 × 10^5 per well of tachyzoites of the RH strain were added to the cell monolayers, in DMEM without phenol red with 3% HIFBS. One hour later, the compound 12b and drugs dilutions in the DMEM without phenol red medium were added to the Hs27 cells with T. gondii.
(§4) The plates were read with covered lids, and both excitation (475 nm) and emission (509 nm) from the bottom using multimode microplate reader SpectraMax® i3. Additionally, fluorescence measurement was performed every 24 h. The plates were incubated at 37 °C with 5% of CO2. The results were expressed as mean fluorescent intensity (MFI). The initial value for 1 × 10^5 of T. gondii RH-GFP was 37,000 MFI (log 4.57). The lower limit of detection was 1000 MFI (log 3.0). Data presented as a logarithm of mean fluorescence intensity (logMFI) on concentration and time dependent curves. All experiments were performed in triplicate.

[6] = test system: T. gondii RH-GFP; test: Kinetics of T. gondii growth, Assay 2 (pre-incubated extracellular tachyzoites); format: cell-based, Toxoplasma gondii; settings: 24 h after infection
Procedure: as §3
Assay 2—After 72 h of incubation, the medium was removed and DMEM without phenol red with 3% HIFBS, was added. In the new 96-well, tissue culture-treated plates 2 × 10^5 per well of tachyzoites of the RH strain were added and treated for 3, and 6 h with the compound 12b and drugs (diluted in the DMEM without phenol red medium) at 37 °C. Then tachyzoites were wash out three times in DPBS, resuspended in DMEM without phenol red medium with 3% HIFBS, and finally 1 × 10^5 per well of tachyzoites were added to the Hs27 cells.
as §4, with “All experiments were performed in triplicate.” left out

[7] = test system: T. gondii; settings: values from the earlier paper; ref [25]; cited from earlier work
[8] = ratio of CC30 (Hs27) to IC50 (T. gondii); 1b–12b and positive controls
[9] = compared to non-treated host cells, compound at IC50 concentration, assay not named in abstract
[10] = compound at IC50 present 3 h during infection, washed, 24 h free medium, vs non-treated
[11] = Toxoplasma gondii, HS27, 96 h, read-out: IC50 (50% inhibition of T. gondii proliferation)

| Compound | CC30 (cytotoxic concentration causing 30% of cells proliferation inhibition) [1] | IC50 ([2]; Toxoplasma gondii, HS27, 96 h; read-out: IC50 (50% inhibition of T. gondii proliferation)) | SI (selectivity index, CC30/IC50) [2, 8] | reduction in number of tachyzoites per vacuole [3, 9] | reduction in the percentage of infected host cells [3, 9] | number of tachyzoites per vacuole (Assay A) [3, 10] | percentage of infected cells (Assay A) [3, 10] | number of intravacuolar tachyzoites (Assay B) [4] | percentage of infected cells (Assay B) [4] | size of parasitophorous vacuole (Assay B) [4] | inhibition at 250 µM ([5]; Toxoplasma gondii, Assay 1, 250 µM (95.50 µg/mL), first 24 h post-infection, maintained for the next 72 h) | reduction of the number of newly formed parasites in Hs27 host cells ([6]; 3 h pre-incubation of tachyzoites) | reduction of the number of newly formed parasites in Hs27 host cells ([6]; 6 h pre-incubation of tachyzoites) | IC50 [2, 11] | effect on the kinetics of T. gondii growth [5] | IC50 (50% inhibition of T. gondii proliferation) [7] |
| --- | --- | --- | --- | --- | --- | --- | --- | --- | --- | --- | --- | --- | --- | --- | --- | --- |
| Cc1nc[nH]c1-c1nnc(Nc2ccc(I)cc2)s1 [12b] | 98.18 µg/mL | 4.7 µg/mL (≈ 12.3 µM) | 20.89 | 93% | 44% | significant reductions | significant reductions | significant reduction | still the same | significant reduction | 97% | 80% | 89% | – | – | – |
| Nc1ccc(S(=O)(=O)Nc2ncccn2)cc1 [Sulfadiazine (SUL), Sulfadiazine, reference compound] | 2230.61 µg/mL | – | 1.78 | – | – | – | – | – | – | – | – | – | – | 1250 µg/mL (≈ 5010 µM) | only moderately slow down the proliferation of tachyzoites | 2721.45 µg/mL |
| COc1cc(Cc2cnc(N)nc2N)cc(OC)c1OC [Trimethoprim (TRI), Trimethoprim, reference compound] | 17.78 µg/mL | – | 1.20 | – | – | – | – | – | – | – | – | – | – | 14.8 µg/mL (≈ 50.9 µM) | only moderately slow down the proliferation of tachyzoites | 12.13 µg/mL |
